Results as given in patent US11402382B2, “Diagnostic and therapeutic methods for cancer” (Genentech, Inc., priority 2017, dated 2022).

Tests used:
[1] = test system: vascular signature, Th1 chemokine, CD8 T-effector and NK cell genes in mRCC tumor biopsies; assay: Phase Ib tumor biopsy gene expression analysis (Fluidigm PCR panel, NanoString panel); format: in vivo, human
Experimental: RNA isolation was performed as described by Schleifman et al. (PLoS One 8:e74231, 2014). Briefly, tumor FFPE sections were macro dissected to enrich for neoplastic tissue, and tissue was lysed using tumor lysis buffer and Proteinase K to allow for complete digestion and release of nucleic acids. RNA was isolated using the High Pure FFPE RNA Micro Kit (Roche Applied Sciences, Indianapolis, Ind.) according to the manufacturer's protocol. DNA was isolated using the QIAAMP® DNA FFPE Tissue Kit (Qiagen, Hilden, Germany) according to the manufacturer's protocol. RNA and DNA were stored at 280 uC until the analyses were performed.
Gene-expression analysis was performed using the BioMark HD™ real-time PCR Platform (Fluidigm) as described by Schleifman et al. (PLoS One 8:e74231, 2014). All TAQMAN® assays in the expression panel used FAM™ dye-labeled TAQMAN® minor groove binder (MGB) probes and ordered through Life Technologies either made-to-order or custom-designed, including four reference genes: SP2, GUSB, TMEM55B and VPS33B. A geometric median of the Ct values for the four reference genes (SP2, GUSB, TMEM55B and VPS33B) was calculated for each sample, and expression levels were determined using the delta Ct (ΔCt) method as follows: Ct (target Gene)2GeoMedian Ct (reference genes). Median mRNA expression levels (as measured by immunochip (iChip)) across patients on study were used as cutoffs to derive high- versus low-expression categorization. P values were determined by t test.
NanoString gene expression data were processed using the R/Bioconductor package “NanoStringQCPro.” Raw counts were adjusted by positive control counts before probe- and lane-specific background was calculated based on both negative controls and blank measurements. After background correction, counts were log2 transformed and normalized by housekeeping gene expression (TMEM55B, VPS33B, TBP, and TUBB).
In addition to safety, tolerability, and clinical activity, one key objective of the phase Ib study described above was to evaluate the mechanism of combination activity. The trial design included a run-in period with bevacizumab to specifically interrogate the effects of bevacizumab on the local tumor immune microenvironment, followed by combination therapy with immune checkpoint blockade using atezolizumab. Tumor biopsies and blood were collected prior to treatment, 15-18 days following bevacizumab, and 4-6 weeks after the atezolizumab and bevacizumab combination treatment had been initiated.
To identify tumor markers associated with bevacizumab monotherapy or combination therapy, gene expression analysis was performed using both a 90 gene PCR-based Fluidigm panel and an 800 gene custom NanoString panel. […]

[2] = test system: immune and vasculature markers in mRCC tumor sections; assay: Phase Ib tumor immunohistochemistry (CD34/αSMA, CD8, Ki67/CD8, MHC-I, PD-L1); format: in vivo, human
Experimental: Formalin-fixed, paraffin-embedded (FFPE) tissue sections of 4 μm thickness were stained for PD-L1 with an anti-human PD-L1 rabbit monoclonal antibody (clone SP142; Ventana, Tucson, Ariz.) on an automated staining platform (BenchMark; Ventana) using a concentration of […], with signal visualization by diaminobenzidine; sections were counter-stained with haematoxylin. PD-L1 expression was evaluated on tumor cells and tumor-infiltrating immune cells. […] For tumor-infiltrating immune cells, the percentage of PD-L1-positive tumor-infiltrating immune cells occupying the tumor was determined. […] Specimens were scored as IHC 0, 1, 2, or 3 if <1%, ≥1% but <5%, ≥5% but <10%, or ≥10% of cells per area were PD-L1 positive, respectively. […]
All MHC-I IHC steps were carried out on the Ventana Discovery XT automated platform (Ventana Medical Systems; Tucson, Ariz.). […] Bound primary antibody was detected by the OMNIMAP™ anti-rabbit HRP detection kit, followed by DAB (Ventana Medical Systems; Tucson, Ariz.). […] MHC-I staining in tumor cells was scored using an H-score system. […] Relative to the overall tumor area, the percentage of cells at different staining intensities was determined by visual assessment. […] Cases were scored by two independent pathologists. […]

## bevacizumab: recombinant humanized anti-VEGF monoclonal antibody, also known as rhuMAb VEGF or AVASTIN®
[1]; both on-treatment time points vs pre-treatment, all patients
  expression of genes associated with the neo-vasculature (VEGF downstream signaling): significantly decreased
[1]; normalized to housekeeping gene expression, FIG. 11
  VEGF transcript expression in tumors: upregulation
[1]; on-treatment tumor
  consistent changes in FasL gene expression: not observed
[1]; six patients with paired biopsies
  patients showing a significant increase in gene signatures related to Th1 signaling: four of the six
[2]; immature or unstable vessels (CD34+/αSMA−)
  effect on vessels, dual staining of CD34 with αSMA: primarily affected
[2]; on-treatment tumor vs pre-treatment
  MHC-I staining: increase
